Earlier results on two compounds are cited in article PMC10114980, “Triple targeting of mutant EGFR^L858R/T790M, COX-2, and 15-LOX: design and synthesis of novel quinazolinone tethered phenyl urea derivatives for anti-inflammatory and anticancer evaluation” (Journal of Enzyme Inhibition and Medicinal Chemistry, 2023).

The series relates to EGFR. As to conditions: Figure 2; cited from earlier work.

In the case of `O=C(CNc1ccc(Cl)cc1)Cn1c(-c2ccccc2)nc2ccccc2c1=O` [G], the half-inhibitory concentration (IC50) is 81 nM.

On to `Cc1cccc(Cl)c1NC(=O)Nc1ccc(-c2nc(NCCN(C)C)c3ccccc3n2)cc1` [I], for which the IC50 was 56 nM.
